Laboratory results: ChEMBL document CHEMBL5376003, “Structure-Activity Relationship of FL118 Platform Position 7 Versus Position 9-Derived Compounds and Their Mechanism of Action and Antitumor Activity” (J Med Chem, 2023)
Active and inactive are the calls of the source. The rule behind the calls is not given here.

Tests used:
HCT-116 [1] = experiment: Induction of apoptosis in human HCT-116 cells assessed as downregulation of GTF2H1 mRNA expression at 10 to 500 nM incubated for 6 to 48 hrs by RNA analysis; assay type: functional, cell-based; details: dose 10-500 nM, time 6-48 hrs
HCT-116 [2] = experiment: Induction of apoptosis in human HCT-116 cells assessed as downregulation of DTYMK gene expression at 10 to 500 nM incubated for 6 to 48 hrs by RNA analysis; assay type: functional, cell-based; details: dose 10-500 nM, time 6-48 hrs
HCT-116 [3] = experiment: Induction of apoptosis in human HCT-116 cells assessed as upregulation of DDX5 mRNA expression at 50 nM incubated for 24 hrs by RNA analysis; assay type: functional, cell-based
HCT-116 [4] = experiment: Induction of apoptosis in human HCT-116 cells assessed as downregulation of PRKACB gene expression at 10 to 500 nM incubated for 6 to 48 hrs by RNA analysis; assay type: functional, cell-based; details: dose 10-500 nM, time 6-48 hrs
HCT-116 [5] = experiment: Induction of apoptosis in human HCT-116 cells assessed as upregulation of BIK mRNA expression at 10 to 500 nM incubated for 6 to 48 hrs by RNA analysis; assay type: functional, cell-based; details: dose 10-500 nM, time 6-48 hrs
HCT-116 [6] = experiment: Induction of apoptosis in human HCT-116 cells assessed as downregulation of PPAT gene expression at 10 to 500 nM incubated for 6 to 48 hrs by RNA analysis; assay type: functional, cell-based; details: dose 10-500 nM, time 6-48 hrs
HCT-116 [7] = experiment: Induction of apoptosis in human HCT-116 cells assessed as downregulation of CTPS1 gene expression at 10 to 500 nM incubated for 6 to 48 hrs by RNA analysis; assay type: functional, cell-based; details: dose 10-500 nM, time 6-48 hrs
HCT-116 [8] = experiment: Induction of apoptosis in human HCT-116 cells assessed as increase in intracellular ROS level incubated for 48 hrs by DCFH-DA staining based fluorescence microscopy; assay type: functional, cell-based
HCT-116 [9] = experiment: Induction of apoptosis in human HCT-116 cells assessed as modulation of DDX18 mRNA expression at 10 to 500 nM incubated for 6 to 48 hrs by RNA analysis; assay type: functional, cell-based; details: dose 10-500 nM, time 6-48 hrs
HCT-116 [10] = experiment: Induction of apoptosis in human HCT-116 cells assessed as downregulation of ADPGK gene expression at 10 to 500 nM incubated for 6 to 48 hrs by RNA analysis; assay type: functional, cell-based; details: dose 10-500 nM, time 6-48 hrs
HCT-116 [11] = experiment: Induction of apoptosis in human HCT-116 cells assessed as downregulation of NUP155 gene expression at 10 to 500 nM incubated for 6 to 48 hrs by RNA analysis; assay type: functional, cell-based; details: dose 10-500 nM, time 6-48 hrs
HCT-116 [12] = experiment: Induction of apoptosis in human HCT-116 cells assessed as downregulation of DCTPP1 gene expression at 10 to 500 nM incubated for 6 to 48 hrs by RNA analysis; assay type: functional, cell-based; details: dose 10-500 nM, time 6-48 hrs
HCT-116 [13] = experiment: Induction of apoptosis in human HCT-116 cells assessed as downregulation of NUP58 gene expression at 10 to 500 nM incubated for 6 to 48 hrs by RNA analysis; assay type: functional, cell-based; details: dose 10-500 nM, time 6-48 hrs
HCT-116 [14] = experiment: Induction of apoptosis in human HCT-116 cells assessed as downregulation of MCL-1 protein expression incubated for 48 hrs by Western blotting analysis; assay type: functional, cell-based
HCT-116 [15] = experiment: Induction of apoptosis in human HCT-116 cells assessed as upregulation of ADA mRNA expression at 10 to 500 nM incubated for 6 to 48 hrs by RNA analysis; assay type: functional, cell-based; details: dose 10-500 nM, time 6-48 hrs
[16] = biological target: T1, DNA topoisomerase 1 (Homo sapiens) (UniProt P11387); experiment: Inhibition of topoisomerase 1 (unknown origin) assessed as relaxation of supercoiled plasmid pBR322 DNA at 25 to 100 uM incubated for 30 mins by ethidium bromide staining based agarose gel electrophoresis; details: dose 25-100 µM
T1 sequence (whole entry): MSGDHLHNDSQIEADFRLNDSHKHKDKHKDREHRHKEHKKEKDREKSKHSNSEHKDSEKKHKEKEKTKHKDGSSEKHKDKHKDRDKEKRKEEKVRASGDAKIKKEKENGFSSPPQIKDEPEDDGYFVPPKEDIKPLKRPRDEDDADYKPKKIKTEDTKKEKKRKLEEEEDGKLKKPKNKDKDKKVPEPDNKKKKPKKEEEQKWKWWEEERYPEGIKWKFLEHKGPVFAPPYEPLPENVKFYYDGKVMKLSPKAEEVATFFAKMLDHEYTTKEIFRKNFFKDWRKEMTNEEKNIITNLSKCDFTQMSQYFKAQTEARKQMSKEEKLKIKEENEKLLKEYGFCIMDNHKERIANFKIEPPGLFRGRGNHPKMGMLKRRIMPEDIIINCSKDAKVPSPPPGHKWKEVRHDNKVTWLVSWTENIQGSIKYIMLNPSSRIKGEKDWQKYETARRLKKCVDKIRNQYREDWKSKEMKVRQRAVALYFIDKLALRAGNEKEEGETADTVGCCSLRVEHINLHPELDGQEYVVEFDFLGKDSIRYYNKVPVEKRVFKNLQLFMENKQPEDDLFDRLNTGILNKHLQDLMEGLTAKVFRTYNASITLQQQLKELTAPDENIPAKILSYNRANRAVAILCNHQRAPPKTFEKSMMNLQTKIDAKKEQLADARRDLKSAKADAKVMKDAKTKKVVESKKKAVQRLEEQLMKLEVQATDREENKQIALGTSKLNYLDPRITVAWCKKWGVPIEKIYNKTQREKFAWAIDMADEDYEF

HCT-116 [17] = experiment: Induction of apoptosis in human HCT-116 cells assessed as modulation of TOP3A mRNA expression at 10 to 500 nM incubated for 6 to 48 hrs by RNA analysis; assay type: functional, cell-based; details: dose 10-500 nM, time 6-48 hrs
HCT-116 [18] = experiment: Activation of innate immune response in human HCT-116 cells assessed as upregulation of IL-1A gene expression at 10 to 500 nM incubated for 6 to 48 hrs by RNA analysis; assay type: functional, cell-based; details: dose 10-500 nM, time 6-48 hrs
HCT-116 [19] = experiment: Induction of apoptosis in human HCT-116 cells assessed as downregulation of TPI1 gene expression at 10 to 500 nM incubated for 6 to 48 hrs by RNA analysis; assay type: functional, cell-based; details: dose 10-500 nM, time 6-48 hrs
HCT-116 [20] = experiment: Inhibition of cell migration in human HCT-116 cells assessed as intercellular distance at 5 nM by inverted phase-contrast microscopic analysis (reference value: 2.5 +/- 0.7 millimeter); assay type: functional
HCT-116 [21] = experiment: Induction of apoptosis in human HCT-116 cells assessed as downregulation of CTPS2 gene expression at 10 to 500 nM incubated for 6 to 48 hrs by RNA analysis; assay type: functional, cell-based; details: dose 10-500 nM, time 6-48 hrs
HCT-116 [22] = experiment: Induction of apoptosis in human HCT-116 cells assessed as downregulation of HPRT1 gene expression at 10 to 500 nM incubated for 6 to 48 hrs by RNA analysis; assay type: functional, cell-based; details: dose 10-500 nM, time 6-48 hrs
HCT-116 [23] = experiment: Induction of apoptosis in human HCT-116 cells assessed as downregulation of BCL2 mRNA expression at 10 to 500 nM incubated for 6 to 48 hrs by RNA analysis; assay type: functional, cell-based; details: dose 10-500 nM, time 6-48 hrs
HCT-116 [24] = experiment: Induction of apoptosis in human HCT-116 cells assessed as downregulation of PPP2CA gene expression at 10 to 500 nM incubated for 6 to 48 hrs by RNA analysis; assay type: functional, cell-based; details: dose 10-500 nM, time 6-48 hrs
HCT-116 [25] = experiment: Induction of apoptosis in human HCT-116 cells assessed as downregulation of NUP62 gene expression at 10 to 500 nM incubated for 6 to 48 hrs by RNA analysis; assay type: functional, cell-based; details: dose 10-500 nM, time 6-48 hrs
HCT-116 [26] = experiment: Induction of apoptosis in human HCT-116 cells assessed as downregulation of LIPE gene expression at 10 to 500 nM incubated for 6 to 48 hrs by RNA analysis; assay type: functional, cell-based; details: dose 10-500 nM, time 6-48 hrs

CC[C@@]1(O)C(=O)OCc2c1cc1n(c2=O)Cc2c-1nc1cc3c(cc1c2-c1ccc(OC)cc1)OCO3
Activity (HCT-116 [1]): Active | Activity (HCT-116 [2]): Active | Activity (HCT-116 [3]): inactive | Activity (HCT-116 [4]): Active | Activity (HCT-116 [5]): Active | Activity (HCT-116 [6]): Active | Activity (HCT-116 [7]): Active | Activity (HCT-116 [8]): Dose-Dependent Effect | Activity (HCT-116 [9]): Active | Activity (HCT-116 [10]): Active | Activity (HCT-116 [11]): Active | Activity (HCT-116 [12]): Active | Activity (HCT-116 [13]): Active | Activity (HCT-116 [14]): Active | Activity (HCT-116 [15]): Active | Topoisomerase 1 inhibition [16]: Active | Activity (HCT-116 [17]): Active | Activity (HCT-116 [18]): Active | Activity (HCT-116 [19]): Active | Activity (HCT-116 [20]): 2.8 mm | Activity (HCT-116 [21]): Active | Activity (HCT-116 [22]): Active | Activity (HCT-116 [23]): Active | Activity (HCT-116 [24]): Active | Activity (HCT-116 [25]): Active | Activity (HCT-116 [26]): Active

CC[C@@]1(O)C(=O)OCc2c1cc1n(c2=O)Cc2cc3cc4c(cc3nc2-1)OCO4
Activity (HCT-116 [1]): Active | Activity (HCT-116 [2]): Active | Activity (HCT-116 [3]): inactive | Activity (HCT-116 [4]): Active | Activity (HCT-116 [5]): Active | Activity (HCT-116 [6]): Active | Activity (HCT-116 [7]): Active | Activity (HCT-116 [8]): Dose-Dependent Effect | Activity (HCT-116 [9]): Active | Activity (HCT-116 [10]): Active | Activity (HCT-116 [11]): Active | Activity (HCT-116 [12]): Active | Activity (HCT-116 [13]): Active | Activity (HCT-116 [15]): Active | Activity (HCT-116 [17]): Active | Activity (HCT-116 [18]): Active | Activity (HCT-116 [19]): Active | Activity (HCT-116 [20]): 2.6 mm | Activity (HCT-116 [21]): Active | Activity (HCT-116 [22]): Active | Activity (HCT-116 [23]): Active | Activity (HCT-116 [24]): Active | Activity (HCT-116 [25]): Active | Activity (HCT-116 [26]): Active

CC[C@@]1(O)C(=O)OCc2c1cc1n(c2=O)Cc2c-1nc1cc3c(cc1c2-c1cc(OC)cc(OC)c1)OCO3
Activity (HCT-116 [1]): Active | Activity (HCT-116 [2]): Active | Activity (HCT-116 [3]): inactive | Activity (HCT-116 [5]): Active | Activity (HCT-116 [6]): Active | Activity (HCT-116 [7]): Active | Activity (HCT-116 [8]): Dose-Dependent Effect | Activity (HCT-116 [9]): Active | Activity (HCT-116 [11]): Active | Activity (HCT-116 [12]): Active | Activity (HCT-116 [14]): Active | Topoisomerase 1 inhibition [16]: Active | Activity (HCT-116 [17]): Active | Activity (HCT-116 [19]): Active | Activity (HCT-116 [20]): 2.7 mm | Activity (HCT-116 [21]): Active | Activity (HCT-116 [23]): Active | Activity (HCT-116 [24]): Active | Activity (HCT-116 [25]): Active | Activity (HCT-116 [26]): Active

CCc1ccc(-c2c3c(nc4cc5c(cc24)OCO5)-c2cc4c(c(=O)n2C3)COC(=O)[C@]4(O)CC)cc1
Activity (HCT-116 [1]): Active | Activity (HCT-116 [2]): Active | Activity (HCT-116 [3]): inactive | Activity (HCT-116 [4]): Active | Activity (HCT-116 [5]): Active | Activity (HCT-116 [6]): Active | Activity (HCT-116 [7]): Active | Activity (HCT-116 [8]): Dose-Dependent Effect | Activity (HCT-116 [9]): Active | Activity (HCT-116 [10]): Active | Activity (HCT-116 [11]): Active | Activity (HCT-116 [12]): Active | Activity (HCT-116 [13]): Active | Activity (HCT-116 [14]): Active | Activity (HCT-116 [15]): Active | Topoisomerase 1 inhibition [16]: Active | Activity (HCT-116 [17]): Active | Activity (HCT-116 [18]): Active | Activity (HCT-116 [19]): Active | Activity (HCT-116 [20]): 2.6 mm | Activity (HCT-116 [21]): Active | Activity (HCT-116 [22]): Active | Activity (HCT-116 [23]): Active | Activity (HCT-116 [24]): Active | Activity (HCT-116 [25]): Active | Activity (HCT-116 [26]): Active
